Measurements reported in PubChem BioAssay (NCI).
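Step 1: Grow cells in 96-well plates. Step 2: Expose to compound for 48 hours at 5 concentrations. Step 3: Interpolate endpoints linearly; if unreached, use highest concentration. At the GI50, growth is halved. The concentration for full growth arrest is given as TGI.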

Experiments:
Assay in all cases: NCI anticancer screen, dose series, 48 h
TK-10 renal = tested on: TK-10 renal
UO-31 renal = tested on: UO-31 renal
KM12 colon = tested on: KM12 colon
M14 melanoma = tested on: M14 melanoma
CCRF-CEM leukemia = tested on: CCRF-CEM leukemia
OVCAR-3 ovarian = tested on: OVCAR-3 ovarian
HCT-15 colon = tested on: HCT-15 colon
BT-549 breast = tested on: BT-549 breast
LOX IMVI melanoma = tested on: LOX IMVI melanoma
A549 NSCLC = tested on: A549 NSCLC

SMILES | GI50 (TK-10 renal) [µM] | TGI (TK-10 renal) [µM] | GI50 (UO-31 renal) [µM] | TGI (UO-31 renal) [µM] | GI50 (KM12 colon) [µM] | TGI (KM12 colon) [µM] | GI50 (M14 melanoma) [µM] | TGI (M14 melanoma) [µM] | GI50 (CCRF-CEM leukemia) [µM] | TGI (CCRF-CEM leukemia) [µM] | GI50 (OVCAR-3 ovarian) [µM] | TGI (OVCAR-3 ovarian) [µM] | GI50 (HCT-15 colon) [µM] | TGI (HCT-15 colon) [µM] | GI50 (BT-549 breast) [µM] | TGI (BT-549 breast) [µM] | GI50 (LOX IMVI melanoma) [µM] | TGI (LOX IMVI melanoma) [µM] | TGI (A549 NSCLC) [µM] | GI50 (A549 NSCLC) [µM]
CN(C)CCCN1c2nc3ccccc3cc2Sc2cc3ccccc3nc21 | 1.65 | 3.1 | 1.27 | 2.71 | 1.51 | 2.88 | 1.69 | 3.23 | 1.12 | 2.55 | 1.53 | 2.92 | 1.33 | 2.87 | 1.42 | 2.84 | 1.55 | 3.16 |  | 
COc1ccc(C(N)=O)cc1N=NN(C)C |  | > 100 |  | > 100 |  | > 100 |  | > 100 |  | > 100 |  | > 100 |  | > 100 |  |  |  | > 100 | > 100 | 
COC1OC(CO)C(O)C(O)C1Br (centres undefined) |  | > 100 |  |  |  | > 100 |  | > 100 |  | > 100 |  | > 100 |  | > 100 |  |  |  | > 100 | > 100 | 
Cc1c(C(=O)NCCO)[n+](=O)c2cc(Cl)ccc2n1[O-] |  | > 100 |  | > 100 |  | > 100 |  | > 100 |  | > 100 |  | > 100 |  | > 100 |  |  |  | > 100 | > 100 | 
CC(=O)OCCOCNC(=S)N/N=C(\C)c1cnc2ccccc2n1 |  | > 100 |  | > 100 |  | > 100 |  | > 100 |  | 90.2 |  | > 100 |  | > 100 |  |  |  | > 100 | > 100 | 
C=C=C(CC)C(C(=O)OC)N(CC)CC (centres undefined) |  | > 100 |  | > 100 |  | > 100 |  | > 100 |  | > 100 |  | > 100 |  |  |  |  |  | > 100 | > 100 | 
CN(C)C(N)=NC#N |  | > 100 |  | > 100 |  | > 100 |  | > 100 |  |  |  | > 100 |  | 34.8 |  |  |  |  | > 100 | 
O=c1[nH]c(=O)n(C2OC(CO)C(O)C2O)c2c1CCCC2 (centres undefined) |  | > 100 |  | > 100 |  | > 100 |  | > 100 |  | > 100 |  | > 100 |  | > 100 |  |  |  | > 100 | > 100 | 
CCC(=O)C(C)C1=Nc2nnc(CCCCCCCc3nnc4n3C(=O)C(C(C)C(=O)CC)=N4)n2C1=O (centres undefined) |  | > 100 |  | > 100 |  | > 100 |  | > 100 |  | > 100 |  | > 100 |  | > 100 |  |  |  | > 100 | > 100 | 
CC(=O)O[C@H]1CC[C@@]2(C)C(=CC[C@H]3C4=CC=C(C(C)=O)[C@@]4(C)CCC32)C1 (some centres undefined) |  | > 100 |  | > 100 |  | > 100 |  | > 100 |  | > 100 |  | > 100 |  | > 100 |  |  |  | 43.8 | > 100 | 
CC1(C)OC(=O)C=C([O-])O1.CC1(C)OC(=O)C=C([O-])O1.O=S(=O)([O-])c1ccc([O-])c2ncccc12.O=S(=O)([O-])c1ccc([O-])c2ncccc12.[Ti+4] | > 100 | > 100 | > 100 | > 100 | > 100 | > 100 | 69.2 | > 100 | 69.8 | > 100 | 86.4 | > 100 | 99.7 | > 100 |  |  | 46.7 | > 100 | > 100 | 48.6
CC(=O)OC1CC2C(C)(C)C(=O)C=C[C@]2(C)C2CCC3(C)C(c4ccoc4)C(=O)[C@H]4O[C@]43[C@]12C (some centres undefined) |  | > 100 |  | 32.7 |  |  |  | 82.4 |  | 62.3 |  |  |  | 37.7 |  |  |  | 42.6 |  | 
